Test results as given in ChEMBL document CHEMBL5550106, “Recent advances in the exploration of oxazolidinone scaffolds from compound development to antibacterial agents and other bioactivities” (Eur J Med Chem, 2024).
Converted amounts (≈) assume the structure as drawn.

Assays:
Escherichia coli [1] = assay: Antibacterial activity against efflux pump-efficient Escherichia coli MG1655 assessed as bacterial growth inhibition; type: functional
Staphylococcus aureus = assay: Antibacterial activity against Staphylococcus aureus assessed as reduction in bacterial growth incubated for 24 hrs by broth microdilution method; type: functional
Escherichia coli [2] = assay: Antibacterial activity against Escherichia coli MG1655 in presence of polymyxin B nonapeptide; type: functional
Escherichia coli [3] = assay: Antimicrobial activity against wild type Escherichia coli MG1655 assessed as inhibition of microbial growth; type: functional
MGC-803 = assay: Antiproliferative activity against human MGC-803 cells assessed as reduction in cell growth by MTT assay; type: functional, cell-based
NCI-H460 = assay: Antiproliferative activity against human NCI-H460 cells assessed as inhibition of cell growth by MTT assay; type: functional, cell-based
SK-OV-3 = assay: Antiproliferative activity against human SK-OV-3 cells assessed as reduction in cell viability incubated for 24 hrs by CCK8 assay; type: functional, cell-based; conditions: SK-OV-3, 24 h
L02 = assay: Antiproliferative activity against human L02 cells assessed as inhibition of cell growth incubated for 24 hrs by MTT assay; type: functional, cell-based; conditions: L02, 24 h

| SMILES | MIC (Escherichia coli [1]) [µg/mL] | MIC (Staphylococcus aureus) [µg/mL] | MIC (Escherichia coli [2]) [µg/mL] | MIC (Escherichia coli [3]) [µg/mL] | IC50 (MGC-803) [µM] | IC50 (NCI-H460) [µM] | IC50 (SK-OV-3) [µM] | IC50 (L02) [µM] |
| --- | --- | --- | --- | --- | --- | --- | --- | --- |
| O=C1O[C@@H](CO)CN1c1ccc(-c2ccccc2)c(F)c1 | 16 (≈ 55.7 µM) | 1 (≈ 3.48 µM) | 16 | > 64 | – | – | – | – |
| CC(C)c1ccc2c(c1)CCC1[C@](C)(C(=O)OCC3CN(c4ccccc4)C(=O)O3)CCC[C@]21C (stereo partly specified) | – | – | – | – | 3.82 | ≥ 4.3 | ≥ 4.1 | ≥ 26.4 |
| CC(C)c1ccc2c(c1)CCC1[C@](C)(C(=O)OCC3CN(c4cccc(Cl)c4)C(=O)O3)CCC[C@]21C (stereo partly specified) | – | – | – | – | 3.82 | ≥ 4.3 | ≥ 4.1 | ≥ 26.4 |
| COc1cccc(NCC(O)COC(=O)[C@]2(C)CCC[C@]3(C)c4ccc(C(C)C)cc4CCC23)c1 (stereo partly specified) | – | – | – | – | 7.1 | ≥ 15.6 | ≥ 14.9 | ≥ 28.3 |
| COc1cccc(N2CC(COC(=O)[C@]3(C)CCC[C@]4(C)c5ccc(C(C)C)cc5CCC34)OC2=O)c1 (stereo partly specified) | – | – | – | – | 3.82 | ≥ 4.3 | ≥ 4.1 | ≥ 26.4 |
| O=C1O[C@@H](CO)CN1c1ccc(-c2cccc(O)c2F)c(F)c1 | 32 (≈ 99.6 µM) | 2 (≈ 6.23 µM) | 32 | > 256 | – | – | – | – |
| Cc1ccc(N2CC(COC(=O)[C@]3(C)CCC[C@]4(C)c5ccc(C(C)C)cc5CCC34)OC2=O)cc1 (stereo partly specified) | – | – | – | – | 3.82 | ≥ 4.3 | ≥ 4.1 | ≥ 26.4 |
| O=Cc1ccc(-c2ccc(N3C[C@H](CO)OC3=O)cc2F)cc1O | 16 (≈ 48.3 µM) | < 0.5 | 8 | 128 | – | – | – | – |
| O=C1O[C@@H](CO)CN1c1ccc(-c2ccc(F)c(O)c2)c(F)c1 | 16 (≈ 49.8 µM) | 2 (≈ 6.23 µM) | 16 | > 64 | – | – | – | – |
| C#Cc1cccc(N2CC(COC(=O)[C@]3(C)CCC[C@]4(C)c5ccc(C(C)C)cc5CCC34)OC2=O)c1 (stereo partly specified) | – | – | – | – | 3.82 | ≥ 4.3 | ≥ 4.1 | ≥ 26.4 |
| CC(C)c1ccc2c(c1)CCC1[C@](C)(C(=O)OCC3CN(c4ccc(F)cc4)C(=O)O3)CCC[C@]21C (stereo partly specified) | – | – | – | – | 3.82 | ≥ 4.3 | ≥ 4.1 | ≥ 26.4 |
| NCc1cc(F)c(-c2ccc(N3C[C@H](CO)OC3=O)cc2F)cc1O | 64 (≈ 183 µM) | 32 (≈ 91.3 µM) | 32 | 64 | – | – | – | – |
| CC(C)c1ccc2c(c1)CCC1[C@](C)(C(=O)OCC(O)CNc3cccc(Br)c3)CCC[C@]21C (stereo partly specified) | – | – | – | – | 7.1 | ≥ 15.6 | ≥ 14.9 | ≥ 28.3 |
| Cc1cccc(N2CC(COC(=O)[C@]3(C)CCC[C@]4(C)c5ccc(C(C)C)cc5CCC34)OC2=O)c1 (stereo partly specified) | – | – | – | – | 3.82 | ≥ 4.3 | ≥ 4.1 | ≥ 26.4 |
| Nc1cc(-c2ccc(N3C[C@H](CO)OC3=O)cc2F)ccc1O | 16 (≈ 50.3 µM) | 4 (≈ 12.6 µM) | 64 | > 64 | – | – | – | – |
| NCc1ccc(-c2ccc(N3C[C@H](CO)OC3=O)cc2F)cc1O | 8 (≈ 24.1 µM) | 2.8 (≈ 8.43 µM) | 32 | 84 | – | – | – | – |
| COc1ccccc1N1CC(COC(=O)[C@]2(C)CCC[C@]3(C)c4ccc(C(C)C)cc4CCC23)OC1=O (stereo partly specified) | – | – | – | – | 3.82 | ≥ 4.3 | ≥ 4.1 | ≥ 26.4 |
| Nc1ccc(-c2ccc(N3C[C@H](CO)OC3=O)cc2F)cc1O | 32 (≈ 101 µM) | 4 (≈ 12.6 µM) | 32 | > 64 | – | – | – | – |
| CC(C)c1ccc2c(c1)CCC1[C@](C)(C(=O)OCC(O)CNc3ccccc3)CCC[C@]21C (stereo partly specified) | – | – | – | – | 7.1 | ≥ 15.6 | ≥ 14.9 | ≥ 28.3 |
| CC(C)c1ccc2c(c1)CCC1[C@](C)(C(=O)OCC3CN(c4cccc(Br)c4)C(=O)O3)CCC[C@]21C (stereo partly specified) | – | – | – | – | 3.82 | ≥ 4.3 | ≥ 4.1 | ≥ 26.4 |
| CC(C)c1ccc2c(c1)CCC1[C@](C)(C(=O)OCC3CN(c4ccc(Cl)cc4)C(=O)O3)CCC[C@]21C (stereo partly specified) | – | – | – | – | 3.82 | ≥ 4.3 | ≥ 4.1 | ≥ 26.4 |
| NCc1ncc(-c2ccc(N3C[C@H](CO)OC3=O)cc2F)cc1O | 32 (≈ 96 µM) | 20 (≈ 60 µM) | 32 | 51 | – | – | – | – |
| CC(C)c1ccc2c(c1)CCC1[C@](C)(C(=O)OCC(O)CNc3cccc(F)c3)CCC[C@]21C (stereo partly specified) | – | – | – | – | 7.1 | ≥ 15.6 | ≥ 14.9 | ≥ 28.3 |
| CC(C)c1ccc2c(c1)CCC1[C@](C)(C(=O)OCC(O)CNc3ccc(Br)cc3)CCC[C@]21C (stereo partly specified) | – | – | – | – | 7.1 | ≥ 15.6 | ≥ 14.9 | ≥ 28.3 |
